Data as given in ChEMBL document CHEMBL1201862, “PubChem BioAssay data set” (2004).
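Cultured in 96-well plates, cells were exposed to test compound for 48 hours across five concentrations. GI50: concentration for 50% inhibition of growth.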 Active and inactive are the calls of the source. Cut-off read from the data, not from the text of the source: active = GI50 up to about 1.1 µM and inactive = higher.

Tests used:
Experiment in all cases: DTP human tumour cell line panel, 48 h
[1] = test system: HOP-62
[2] = test system: HOP-92
[3] = test system: U-251
[4] = test system: A498
[5] = test system: A549
[6] = test system: HCT-116
[7] = test system: OVCAR-8
[8] = test system: Hs-578T
[9] = test system: 786-0
[10] = test system: LOX IMVI
[11] = test system: CCRF-CEM
[12] = test system: NCI-H23
[13] = test system: MDA-MB-231
[14] = test system: SF-539
[15] = test system: UACC-62
[16] = test system: NCI-H460
[17] = test system: SW-620
[18] = test system: UO-31
[19] = test system: DU-145
[20] = test system: KM12
[21] = test system: SR
[22] = test system: HT-29
[23] = test system: MOLT-4
[24] = test system: SN12C
[25] = test system: SK-MEL-5
[26] = test system: OVCAR-4
[27] = test system: COLO 205
[28] = test system: NCI-H522
[29] = test system: OVCAR-3
[30] = test system: SNB-19
[31] = test system: EKVX
[32] = test system: MCF7
[33] = test system: M14
[34] = test system: SNB-75
[35] = test system: BT-549
[36] = test system: SK-MEL-2
[37] = test system: CAKI-1
[38] = test system: IGROV-1
[39] = test system: ACHN
[40] = test system: HCT-15
[41] = test system: Malme-3M
[42] = test system: SF-268
[43] = test system: SK-MEL-28
[44] = test system: OVCAR-5
[45] = test system: PC-3
[46] = test system: NCI/ADR-RES
[47] = test system: T47D
[48] = test system: TK-10
[49] = test system: UACC-257
[50] = test system: MDA-MB-435
[51] = test system: MDA-N
[52] = test system: HCC 2998
[53] = test system: RPMI-8226
[54] = test system: SF-295
[55] = test system: HL-60

## CCOC(=O)C1C(c2ccc(OC)cc2)c2c(nn(-c3ccccc3)c2O)CC1(C)O (stereo not given)
[1]
  GI50: > 100 µM (inactive)
[2]
  GI50: 92.3 µM (inactive)
[3]
  GI50: 53.3 µM (inactive)
[4]
  GI50: > 100 µM (inactive)
[5]
  GI50: 18.9 µM (inactive)
[6]
  GI50: 17.9 µM (inactive)
[7]
  GI50: 98.2 µM (inactive)
[8]
  GI50: > 100 µM (inactive)
[9]
  GI50: > 100 µM (inactive)
[10]
  GI50: 0.813 µM (active)
[11]
  GI50: 7.1 µM (inactive)
[12]
  GI50: 43.5 µM (inactive)
[13]
  GI50: 59.2 µM (inactive)
[14]
  GI50: 92.7 µM (inactive)
[15]
  GI50: 1.54 µM (inactive)
[16]
  GI50: 5.48 µM (inactive)
[17]
  GI50: 18.5 µM (inactive)
[18]
  GI50: 11 µM (inactive)
[19]
  GI50: 38.8 µM (inactive)
[20]
  GI50: 7.1 µM (inactive)
[21]
  GI50: 6.49 µM (inactive)
[22]
  GI50: 28 µM (inactive)
[23]
  GI50: 0.596 µM (active)
[24]
  GI50: 91.2 µM (inactive)
[25]
  GI50: 2.81 µM (inactive)
[26]
  GI50: 96.6 µM (inactive)
[27]
  GI50: 16 µM (inactive)
[28]
  GI50: 50 µM (inactive)
[29]
  GI50: 80.4 µM (inactive)
[30]
  GI50: 75.2 µM (inactive)
[31]
  GI50: 51.8 µM (inactive)
[32]
  GI50: 33.6 µM (inactive)
[33]
  GI50: 11 µM (inactive)
[34]
  GI50: > 100 µM (inactive)
[35]
  GI50: 0.0159 µM (active)
[36]
  GI50: 93.8 µM (inactive)
[37]
  GI50: > 100 µM (inactive)
[38]
  GI50: > 100 µM (inactive)
[39]
  GI50: 23 µM (inactive)
[40]
  GI50: 14.3 µM
[41]
  GI50: > 100 µM (inactive)
[42]
  GI50: > 100 µM (inactive)
[43]
  GI50: 37.5 µM (inactive)
[44]
  GI50: > 100 µM (inactive)
[45]
  GI50: 7.5 µM (inactive)
[46]
  GI50: 42.5 µM (inactive)
[47]
  GI50: 12.9 µM (inactive)
[48]
  GI50: 50 µM (inactive)
[49]
  GI50: 3.31 µM (inactive)
[50]
  GI50: 3.02 µM (inactive)
[51]
  GI50: 3.21 µM (inactive)
[52]
  GI50: 26.4 µM (inactive)
[53]
  GI50: 2.29 µM (inactive)
[54]
  GI50: 2.29 µM (inactive)
[55]
  GI50: 1.38 µM (inactive)
